In one assay the test system is MDA-MB-231 cells. Kind of assay: Transwell invasion assay of MDA-MB-231 breast cancer cells. It counts as cell-based. The following applies: MDA-MB-231; for inhibition at 0.01 µM / inhibition at 0.1 µM / inhibition at 1 µM / inhibition at 10 µM: Homo sapiens, read-out: Inhibition rates of invasion of cancer cells (%). How it is done:
The invasion assay was performed by using the transwell insert (BD FALCON, Bedford, USA) equipped with a 8 μm pore-sized filter. An upper part of the transwell insert filter was coated with 20 μl of matrigel (1 mg/ml) while a bottom part of the same was coated with 30 μl of type I collagen (0.5 mg/ml). The MDA-MB-231 cells (5×10^5 cells/100 μl) were added to the insert chamber, and then, each inhibitor was also added thereto. To induce invasion of the cells, a medium supplemented with 5% FBS was added to each well of the bottom chamber to allow a reaction at a temperature of 37° C. in a cell incubator. 18 hours later, the cells remained after removing the solution in the insert chamber were removed by using a cotton swab, whereas cells at the bottom of the membrane were fixed with methanol and stained with hematoxylin and eosin. The cells present at the membrane were observed through a microscope, and the number of the cells was counted in the selected 5 fields at the resolution of 200×.
According to the same manner as in Experimental Example 7, inhibitory effects of the amidopyridinol derivatives synthesized in Examples above on invasion of breast cancer cells, e.g., MDA-MB-231, were reviewed. Here, to compare with, inhibitory effects of aminopyridinol derivatives, e.g., 6-amino-2,4,5-trimethylpyridine-3-ol (BJ-1101) and 6-diphenylamino-2,4,5-trimethylpyridine-3-ol (BJ-1201), on invasion of breast cancer cells, e.g., MDA-MB-231, were reviewed.

The next assay deals with cathepsin S. Kind of assay: RT-PCR of cathepsin S gene expression in MDA-MB-231 cells. It counts as cell-based. The note with it: for effects for reducing expression of cathepsin S genes (in words): MDA-MB-231. How it is done: Each compound of the present invention was treated with breast cancer cells (1×10^5 cell/cm^2), e.g., MDA-MB-231, and then, cultured at a temperature of 37° C. for 24 hours in a cell incubator. Afterwards, a trizole reagent was used to extract the entire mRNA therefrom. 24 hours later, the culture medium was removed therefrom, 1 mL of the triazole reagent was added to each well, and then, the cell elusion was transferred to a 1.5 mL tube. After 200 μl of chloroform was added to each sample, the samples were subjected to centrifugation at a temperature of 4° C., at 12,000 g, for 15 minutes. 500 μl of the supernatant obtained therefrom was transferred to a new tube. After 500 μl of isopropylalcohol was added to each sample, the samples were subjected to centrifugation at a temperature of 4° C., at 12,000 g, for 15 minutes. The supernatant obtained therefrom was removed from each sample, and then, the samples were washed with 75% ethanol to clean mRNA while the precipitants were dried. Then, mRNA extracted therefrom was dissolved in RNase-free water, followed by being heated at a temperature of 55° C. for 10 minutes.
After the RNA quantification, the GoScript™ reverse transcription system (Promega Corporation, Madison, Wis., USA) was used to synthesize cDNA. Here, PCR was performed by using TaKaRa Taq™ (Takara bio Inc., Shiga, Japan), wherein a primer set of cathepsin S consists of a forward primer having SEQ ID NO: 1 (forward sequence: 5′-GCAGTGGCACAGTTGCATAA-3′) and a reverse primer having SEQ ID NO: 2 (reverse sequence: 5′-AGCACCACAAGAACCCATGT-3′). After the PCR product was subjected to agarose gel electrophoresis, the PCR product was stained with ethidium bromide (0.5 μg/ml), thereby obtaining images thereof by using the gel imaging system (UVP, Cambridge, UK). Here, the PCR product was quantified based on glyceraldehyde 3-phosphate dehydrogenase (GAPDH). A GAPDH primer used herein consists of a forward primer having SEQ ID NO: 3 (forward sequence: 5′-GGTGAAGGTCGGAGTCAACG-3′) and a reverse primer having SEQ ID NO: 4 (reverse sequence: 5′-CAAAGTTGTCATGGATGACC-3′).
Furthermore, to screen other amidopyridinol derivatives that inhibit metastasis of breast cancer cells, inhibitory effects on expression of cathepsin S genes were reviewed by treating 1 μM of each compound, in the same manner as in Experimental Example 9.

For assay [1], the system named is VEGF-induced angiogenesis in chicken chorioallantoic membrane (CAM). Kind of assay: CAM analysis of VEGF-induced angiogenesis. Format: in vivo. The following applies: VEGF (20 ng/CAM) + Compound (0.01 nmol/CAM), number of blood vessels after 3 days; for inhibition in vivo at 0.01 nmol/CAM: Gallus gallus, 72 h, read-out: Inhibitory rates (%). How it is done:
To confirm inhibitory effects on angiogenesis through in vivo experiments, the chorioallantoic membrane (CAM) analysis was carried out (refer to Nguyen M et al., Microvascular Res., 47, pp 31-40, 1994). A fertilized egg of a chicken was cultured in conditions maintaining a temperature of 37° C. and relative humidity of 55%. On the 10th day of the culturing, a first small hole was made on an air sac part using a hypodermic needle (Green Cross Medical Corp., Korea), and then, a second hole was made on a flat part of the fertilized egg to make a window thereon. Air was removed through the first hole, i.e., the air sac part, and accordingly, the CAM was separated from the shell of the fertilized egg. Then, a grinding wheel (Multipro 395JA, Dremel, Mexico) was used to cut the air sac part, thereby making a window thereon. Next, the whatman filter disk #1 (Whatman Company, USA) was treated with 3 mg/mL of cortisone acetate, dried, and then, wet by VEGF at a concentration of 20 ng/CAM. The filter disk was placed on blood vessels through the window, and then, compounds prepared according to Examples above were each dissolved in DMSO, diluted with PBS, and then, treated for each concentration. After 3 days of treating the compounds, the CAM part on which the filter disk was placed was isolated, and then, washed with PBS. The Stemi SV6 stereomicroscope (Carl Zeiss, Germany) and the Image-Pro Plus software (Media Cybernetics; Silver Spring, Md., USA) were used to capture images of the CAM part, so as to measure the number of the blood vessels and to analyze data obtained therefrom.

Another assay has as its system HT-29 cells / U937 cells. Kind of assay: TNF-α-induced adhesion of HT-29 intestinal epithelial cells and U937 mononuclear cells. Format: cell-based, human. The note with it: 1 μM, pre-treated 1 hour, TNF-α 10 ng/ml; for inhibition at 1 µM: Homo sapiens, read-out: Inhibitory rates (%). How it is done: HT-29 cells were cultured in a 24-well plate at a concentration of […] cells/cm^2, and meanwhile, amidopyridinol compounds 8a to 8z were pre-treated for 1 hour at each concentration in a serum-free medium supplemented only with 1% PS. Next, 10 ng/ml of TNF-α was treated therewith to allow a reaction at a temperature of 37° C. for 3 hours. After the completion of the reaction, the medium of the HT-29 cells was removed, and then, the HT-29 cells were washed with PBS once. Afterwards, U937 cells, which were treated and reacted with 10 μg/mL of BCECF-AM at a temperature of 37° C. for 30 minutes, were allowed to react with the HT-29 cells at temperature of 37° C. for 1 hour. Then, to remove U937 cells that were not adhered to the HT-29 cells, the reacted cells were washed with PBS twice. In terms of cell dissolution, 0.1% Triton X-100 in 0.1M Tris was allowed to react with the cells for 30 minutes at room temperature, and then, the cells were subjected to quantify by measuring fluorescence thereof using the Fluostar optima microplate reader (BMG Labtechnologies, Germany).

Where [2] appears, read: Homo sapiens, MDA-MB-231, 24 h, 1 μM, MDA-MB-231, 24 hours, RT-PCR, read-out: Inhibition rate of expression of cathepsin S (%).
[3] abbreviates: Homo sapiens, MDA-MB-231, 24 h, screening, 1 μM of each compound, MDA-MB-231, RT-PCR, read-out: Inhibition rate of expression of cathepsin S (%).
The mark [4] stands for this setting: screening, 1 μM of each compound, MDA-MB-231, RT-PCR.

Read-outs that look alike come from different tables or passages of the source. Marks after values point to notes of the source that are not given here.

On to `Cc1nc(N)c(C)c(C)c1O` [BJ-1101, 6-amino-2,4,5-trimethylpyridine-3-ol], for which, in the assay on MDA-MB-231 cells, the inhibition at 0.01 µM was 0.45 ± 15.6%, the inhibition at 0.1 µM amounted to 0%, the inhibition at 1 µM amounted to 0.3 ± 31.8% and the inhibition at 10 µM is 1.73 ± 22.7%. In addition, the “inhibitory effects on invasion of breast cancer cells (in words)” value (from here on “inhibitory effects on invasion”) with MDA-MB-231 cells is recorded as “no inhibitory effects on invasion of breast cancer cells”. Moreover, the inhibition at 1 µM in the assay with cathepsin S (setting [2]) came to 3.3 ± 0.82%. Further, the “effects for reducing expression of cathepsin S genes (in words)” value with cathepsin S was “no effects for reducing expression of cathepsin S genes”.

As for `Cc1nc(N(c2ccccc2)c2ccccc2)c(C)c(C)c1O` [BJ-1201, 6-diphenylamino-2,4,5-trimethylpyridine-3-ol], in the assay with MDA-MB-231 cells, the inhibition at 0.01 µM is 2.52 ± 18.7%, the inhibition at 0.1 µM came out at 0%, the inhibition at 1 µM came out at 1.78 ± 22.1% and the inhibition at 10 µM came to 1.96 ± 6.78%. Moreover, the “inhibitory effects on invasion” value with MDA-MB-231 cells was “no inhibitory effects on invasion of breast cancer cells”. The inhibition at 1 µM with cathepsin S (setting [2]) came out at 2.7 ± 0.12%. Also, the “effects for reducing expression of cathepsin S genes (in words)” value in the assay on cathepsin S is recorded as “no effects for reducing expression of cathepsin S genes”.

As for `Cc1nc(NC(=O)CCCCl)c(C)c(C)c1O` [Compound 8c, N-(5-hydroxy-3,4,6-trimethylpyridine-2-yl)-4-chlorobutaneamide], the inhibition in vivo at 0.01 nmol/CAM in assay [1] stood at 70.2 ± 4.6%. Also, the inhibition at 1 µM in the assay on HT-29 cells / U937 cells stood at 24.7%; in the assay on cathepsin S (setting [3]), 27 ± 1.33%.

`Cc1nc(NC(=O)C(C)(C)C)c(C)c(C)c1O` [Compound 8f, N-(5-hydroxy-3,4,6-trimethylpyridine-2-yl)pivalamide]: in assay [1], the inhibition in vivo at 0.01 nmol/CAM was found to be 73.2 ± 6.4%. The values for the inhibition at 1 µM in the assay with HT-29 cells / U937 cells and in the assay with cathepsin S (setting [3]) were 37.5% and 16.4 ± 0.12%, respectively.

Take `Cc1nc(NC(=O)c2ccc(F)cc2)c(C)c(C)c1O` [Compound 8l, N-(5-hydroxy-3,4,6-trimethylpyridine-2-yl)-4-fluorobenzamide]: in assay [1], the inhibition in vivo at 0.01 nmol/CAM was 75.3 ± 6.3%. In addition, the inhibition at 1 µM in the assay with HT-29 cells / U937 cells was 13.7%. Further, in the assay on MDA-MB-231 cells, the inhibition at 0.01 µM is 8.57 ± 21.5%, the inhibition at 0.1 µM came to 11 ± 23.1%, the inhibition at 1 µM is 33 ± 4.37% and the inhibition at 10 µM worked out at 49.6 ± 7.82%. Moreover, the “inhibitory effects on invasion” value in the assay with MDA-MB-231 cells was “showed inhibitory effects on invasion of breast cancer cells”. Besides, the inhibition at 1 µM with cathepsin S (setting [2]) was found to be 0%. Further, the inhibition at 10 µM in the assay with cathepsin S (Homo sapiens, MDA-MB-231, 24 h, 10 μM, MDA-MB-231, 24 hours, RT-PCR, read-out: Inhibition rate of expression of cathepsin S (%)) stood at 12 ± 0.35%.

Take `Cc1nc(NC(=O)c2ccc(C(C)(C)C)cc2)c(C)c(C)c1O` [Compound 8n, N-(5-hydroxy-3,4,6-trimethylpyridine-2-yl)-4-(tert-butyl)benzamide]: the inhibition in vivo at 0.01 nmol/CAM in assay [1] was 74.2 ± 7%. Further, the inhibition at 1 µM in the assay on HT-29 cells / U937 cells is 22.5%; in the assay on cathepsin S (setting [3]), 8 ± 0.41%.

With `Cc1nc(NC(=O)c2cccc3ccccc23)c(C)c(C)c1O` [Compound 8p, N-(5-hydroxy-3,4,6-trimethylpyridine-2-yl)-1-naphthamide], the inhibition in vivo at 0.01 nmol/CAM in assay [1] was 75.8 ± 5.4%. In addition, the values for the inhibition at 1 µM with HT-29 cells / U937 cells and with cathepsin S (setting [3]) were 64.9% and 44 ± 2.47%, respectively.

Consider `CCC(CC)C(=O)Nc1nc(C)c(O)c(C)c1C` [Compound 8r, 2-ethyl-N-(5-hydroxy-3,4,6-trimethylpyridine-2-yl)butanamide], for which the values for the inhibition at 1 µM in the assay on HT-29 cells / U937 cells and in the assay with cathepsin S (setting [3]) were 4.2% and 3.9 ± 0.22%, respectively.

For `CCC(C(=O)Nc1nc(C)c(O)c(C)c1C)c1ccccc1` (centres unmarked) [Compound 8t, N-(5-hydroxy-3,4,6-trimethylpyridine-2-yl)-2-phenyl butanamide], the “Inhibitory rates (%)” value in the assay with HT-29 cells / U937 cells is listed as 23.6* %. For the same molecule, the “Inhibition rate of expression of cathepsin S (%)” value in the assay on cathepsin S (setting [4]) was 8.2 ± 0.43%.

With `Cc1cc(C)c(C(=O)Nc2nc(C)c(O)c(C)c2C)c(C)c1` [Compound 8u, N-(5-hydroxy-3,4,6-trimethylpyridine-2-yl)-2,4,6-trimethylbenzamide], the inhibition at 1 µM with HT-29 cells / U937 cells came out at 30.4%; with cathepsin S (setting [3]), 2.9 ± 0.08%.

Take “N-(5-hydroxy-3,4,6-trimethylpyridine-2-yl)isobutyryl amide [Compound 8d]”: the entries for the “Inhibitory rates (%)” value (in assay [1]; in the assay with HT-29 cells / U937 cells) were 53.2 ± 11.5 % and 52.3* %, respectively. Further, in the assay with cathepsin S (setting [4]), the “Inhibition rate of expression of cathepsin S (%)” value came out at 33 ± 1.23%.

The values are drawn from US9802897B2, “Amidopyridinol derivative or pharmaceutically acceptable salt thereof and pharmaceutical composition comprising same as active component” (Research Cooperation Foundation of Yeungnam University, priority 2013, dated 2017).
